Experimental findings from ChEMBL document CHEMBL1909046, “DrugMatrix in vitro pharmacology data” are described below.

Usually IC50 stands for the concentration needed to halve the response being measured. In general, Ki refers to a dissociation constant, usually derived from enzyme kinetics or from competition with a known ligand.

Assay [1] has as its target Vascular endothelial growth factor receptor 1 (Homo sapiens, UniProt P17948). The experiment in a line: biochemical. The assay is classed as cell-based, HUVEC. Also: in other assays of this panel Not Active means under 50% inhibition at 10 µM.
The next assay deals with T1, Neutrophil elastase (Homo sapiens, UniProt P08246).
T1 sequence (P08246 whole entry): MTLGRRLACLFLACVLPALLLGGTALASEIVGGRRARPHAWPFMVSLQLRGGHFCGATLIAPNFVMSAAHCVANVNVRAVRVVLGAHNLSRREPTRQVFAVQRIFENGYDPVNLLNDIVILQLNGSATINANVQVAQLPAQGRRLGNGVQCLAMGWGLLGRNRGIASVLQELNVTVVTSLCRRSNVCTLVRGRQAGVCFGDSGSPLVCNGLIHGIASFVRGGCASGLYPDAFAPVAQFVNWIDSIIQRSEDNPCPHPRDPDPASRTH
The assay is classed as tissue-based.

Assay [2] has as its target Epidermal growth factor receptor (Homo sapiens, UniProt P00533). The assay can be described thus: DRUGMATRIX: Protein Tyrosine Kinase, EGF Receptor enzyme inhibition (substrate: Poly(Glu:Tyr)). The following applies: Not Active = under 50% inhibition at 10 µM. The assay is classed as cell-based, Insect cells.
Assay [3] can be described thus: DRUGMATRIX: Nicotinic Acetylcholine radioligand binding (ligand: [125I] Epibatidine). The assay is classed as cell membranes, Membrane. The following applies: imr-32; Not Active = under 50% inhibition at 10 µM.
In the next assay the target is Acetylcholinesterase (Homo sapiens, UniProt P22303). The assay can be described thus: DRUGMATRIX: Acetylcholinesterase enzyme inhibition (substrate: acetylthiocholine). The assay is classed as cell-based, HEK293. The following applies: Not Active = under 50% inhibition at 10 µM.
Chain of Acetylcholinesterase (P22303 whole entry): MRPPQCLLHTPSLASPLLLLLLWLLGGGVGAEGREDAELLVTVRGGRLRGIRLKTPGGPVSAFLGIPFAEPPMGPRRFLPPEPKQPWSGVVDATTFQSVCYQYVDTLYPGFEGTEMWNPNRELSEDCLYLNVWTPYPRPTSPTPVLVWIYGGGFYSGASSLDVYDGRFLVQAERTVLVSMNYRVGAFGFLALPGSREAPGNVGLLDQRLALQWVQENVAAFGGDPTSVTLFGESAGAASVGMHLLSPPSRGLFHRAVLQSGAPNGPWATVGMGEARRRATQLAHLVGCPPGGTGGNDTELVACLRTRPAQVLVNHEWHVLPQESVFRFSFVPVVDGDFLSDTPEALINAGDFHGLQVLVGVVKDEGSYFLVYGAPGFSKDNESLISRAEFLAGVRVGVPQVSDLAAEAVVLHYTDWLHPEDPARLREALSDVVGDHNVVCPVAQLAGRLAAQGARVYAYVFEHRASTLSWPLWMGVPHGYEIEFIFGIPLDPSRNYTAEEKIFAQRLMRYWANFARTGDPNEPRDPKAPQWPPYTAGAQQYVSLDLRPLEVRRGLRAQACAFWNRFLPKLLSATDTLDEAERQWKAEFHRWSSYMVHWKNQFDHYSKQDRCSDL
For assay [4], the target named is T2, Cysteinyl leukotriene receptor 1 (Homo sapiens, UniProt Q9Y271). Also: in other assays of this panel Not Active means under 50% inhibition at 10 µM.
T2 sequence (Q9Y271 whole entry): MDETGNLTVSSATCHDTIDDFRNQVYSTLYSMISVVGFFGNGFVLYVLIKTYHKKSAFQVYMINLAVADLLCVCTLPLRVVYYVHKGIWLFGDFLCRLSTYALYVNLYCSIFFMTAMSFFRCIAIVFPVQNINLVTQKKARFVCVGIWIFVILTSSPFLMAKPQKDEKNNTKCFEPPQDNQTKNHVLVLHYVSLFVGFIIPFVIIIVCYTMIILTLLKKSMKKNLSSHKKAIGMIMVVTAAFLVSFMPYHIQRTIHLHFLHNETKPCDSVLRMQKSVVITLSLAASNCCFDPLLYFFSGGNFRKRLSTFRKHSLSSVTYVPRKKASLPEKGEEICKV
The class given is cell membranes, Membrane. The following applies: cho-k1.

For another assay, the target named is Histamine H2 receptor (Homo sapiens, UniProt P25021). The class given is cell membranes, CHO-K1, Membrane. The following applies: cho-k1. Also: in other assays of this panel Not Active means under 50% inhibition at 10 µM.
Chain of Histamine H2 receptor (P25021 whole entry): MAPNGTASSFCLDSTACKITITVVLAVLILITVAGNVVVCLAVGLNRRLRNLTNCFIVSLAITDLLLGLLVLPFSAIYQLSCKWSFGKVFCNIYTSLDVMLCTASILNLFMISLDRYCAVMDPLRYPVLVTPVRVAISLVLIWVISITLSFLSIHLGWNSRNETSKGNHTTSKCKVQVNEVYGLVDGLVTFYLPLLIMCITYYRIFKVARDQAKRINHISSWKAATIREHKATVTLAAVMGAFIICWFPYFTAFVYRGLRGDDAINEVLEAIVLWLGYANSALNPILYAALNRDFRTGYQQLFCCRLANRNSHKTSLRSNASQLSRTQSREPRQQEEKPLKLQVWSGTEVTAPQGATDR

Chain of Epidermal growth factor receptor (P00533 whole entry): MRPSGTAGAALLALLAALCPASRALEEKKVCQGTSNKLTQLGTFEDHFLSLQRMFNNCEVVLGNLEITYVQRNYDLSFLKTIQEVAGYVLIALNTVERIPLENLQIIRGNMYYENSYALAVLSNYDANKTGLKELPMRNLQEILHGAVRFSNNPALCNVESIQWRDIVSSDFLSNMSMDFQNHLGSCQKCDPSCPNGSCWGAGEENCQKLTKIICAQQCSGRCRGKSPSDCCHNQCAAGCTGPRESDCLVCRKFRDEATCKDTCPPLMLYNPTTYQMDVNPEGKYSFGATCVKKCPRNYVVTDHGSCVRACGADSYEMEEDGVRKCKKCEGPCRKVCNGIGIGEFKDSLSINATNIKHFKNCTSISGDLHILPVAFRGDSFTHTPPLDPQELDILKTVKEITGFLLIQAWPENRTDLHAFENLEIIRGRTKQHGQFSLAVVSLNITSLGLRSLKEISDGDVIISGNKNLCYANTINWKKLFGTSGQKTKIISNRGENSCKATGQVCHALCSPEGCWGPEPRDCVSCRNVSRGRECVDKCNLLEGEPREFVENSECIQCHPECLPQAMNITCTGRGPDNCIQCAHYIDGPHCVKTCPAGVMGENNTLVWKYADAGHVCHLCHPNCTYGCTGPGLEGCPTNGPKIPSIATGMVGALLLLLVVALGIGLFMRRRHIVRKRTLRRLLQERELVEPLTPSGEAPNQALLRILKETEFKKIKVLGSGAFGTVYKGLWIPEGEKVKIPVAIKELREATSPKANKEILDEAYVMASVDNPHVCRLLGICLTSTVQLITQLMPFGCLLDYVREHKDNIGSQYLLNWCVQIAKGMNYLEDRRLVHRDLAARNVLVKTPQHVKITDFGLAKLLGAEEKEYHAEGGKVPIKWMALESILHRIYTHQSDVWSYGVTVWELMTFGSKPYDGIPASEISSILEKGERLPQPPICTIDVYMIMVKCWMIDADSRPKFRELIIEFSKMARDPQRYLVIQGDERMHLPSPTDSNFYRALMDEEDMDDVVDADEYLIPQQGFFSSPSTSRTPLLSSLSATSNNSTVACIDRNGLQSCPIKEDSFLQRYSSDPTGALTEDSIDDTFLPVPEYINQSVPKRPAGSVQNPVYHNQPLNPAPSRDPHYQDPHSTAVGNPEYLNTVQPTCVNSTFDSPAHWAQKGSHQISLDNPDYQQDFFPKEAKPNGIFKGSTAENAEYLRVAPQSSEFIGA
Chain of Vascular endothelial growth factor receptor 1 (P17948 whole entry): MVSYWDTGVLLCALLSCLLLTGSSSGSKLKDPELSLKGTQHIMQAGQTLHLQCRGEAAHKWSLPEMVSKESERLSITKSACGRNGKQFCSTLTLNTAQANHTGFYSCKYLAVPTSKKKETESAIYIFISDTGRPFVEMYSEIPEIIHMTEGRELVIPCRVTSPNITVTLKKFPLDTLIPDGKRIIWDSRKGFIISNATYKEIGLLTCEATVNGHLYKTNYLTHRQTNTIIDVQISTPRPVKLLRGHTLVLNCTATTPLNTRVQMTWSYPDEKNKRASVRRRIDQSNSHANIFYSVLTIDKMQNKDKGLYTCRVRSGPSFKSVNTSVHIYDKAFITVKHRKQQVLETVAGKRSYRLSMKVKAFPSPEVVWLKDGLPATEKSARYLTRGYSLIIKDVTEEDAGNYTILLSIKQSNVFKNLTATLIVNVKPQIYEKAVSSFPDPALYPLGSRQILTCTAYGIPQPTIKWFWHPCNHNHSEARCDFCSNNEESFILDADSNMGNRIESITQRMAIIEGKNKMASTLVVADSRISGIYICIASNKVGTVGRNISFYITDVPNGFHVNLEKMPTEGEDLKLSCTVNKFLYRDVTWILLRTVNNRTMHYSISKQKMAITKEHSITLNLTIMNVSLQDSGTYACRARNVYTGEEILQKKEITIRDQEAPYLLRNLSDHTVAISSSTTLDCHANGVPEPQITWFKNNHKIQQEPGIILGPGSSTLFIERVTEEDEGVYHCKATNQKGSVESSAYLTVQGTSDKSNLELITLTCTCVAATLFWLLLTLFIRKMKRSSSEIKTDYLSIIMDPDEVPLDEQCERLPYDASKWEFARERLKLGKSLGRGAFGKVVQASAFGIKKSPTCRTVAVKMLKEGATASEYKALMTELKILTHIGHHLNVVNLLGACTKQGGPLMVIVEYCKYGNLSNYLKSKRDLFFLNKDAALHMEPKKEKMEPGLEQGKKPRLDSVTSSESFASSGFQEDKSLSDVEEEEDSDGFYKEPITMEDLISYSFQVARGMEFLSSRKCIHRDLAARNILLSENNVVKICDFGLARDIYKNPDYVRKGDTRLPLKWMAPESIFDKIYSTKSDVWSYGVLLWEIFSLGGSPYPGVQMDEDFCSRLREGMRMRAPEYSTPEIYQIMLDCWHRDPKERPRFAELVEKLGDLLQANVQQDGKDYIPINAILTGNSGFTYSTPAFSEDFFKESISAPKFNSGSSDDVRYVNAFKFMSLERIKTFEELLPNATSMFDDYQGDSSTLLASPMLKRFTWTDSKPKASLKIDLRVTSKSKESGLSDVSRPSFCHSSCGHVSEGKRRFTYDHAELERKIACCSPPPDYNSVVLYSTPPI

On to `Nn1nnc2ccccc21`, for which the IC50 entry (in assay [1] (huvec); against Neutrophil elastase; in assay [2] (insect cells); in assay [3]; on Acetylcholinesterase (hek293); in assay [4]) was “Not Active” in each case. On Histamine H2 receptor, the IC50 entry is “Not Active”. In addition, the Ki entry in assay [3] was “Not Active”.
In the case of `CC[C@]1(O)CC[C@H]2[C@@H]3CCC4=CCCC[C@@H]4[C@H]3CC[C@@]21C`, the 50% inhibitory concentration (IC50) entry in assay [1] (huvec) is “Not Active”; on Neutrophil elastase it was “Not Active”; in assay [2] (insect cells), “Not Active”; in assay [3] it was “Not Active”; at Acetylcholinesterase (read-out: IC50) it was 6.5 µM; in assay [4] it was “Not Active”. The IC50 entry at Histamine H2 receptor was “Not Active”. Moreover, the Ki result in assay [3] is “Not Active”.
Turning to `N[C@@H](Cc1ccc(F)cc1)C(=O)O`, the IC50 entry (in assay [1] (huvec); on Neutrophil elastase; in assay [2] (insect cells); in assay [3]; at Acetylcholinesterase (hek293); in assay [4]) was “Not Active” in each case. Besides, the IC50 entry against Histamine H2 receptor is “Not Active”. For the same molecule, the Ki entry in assay [3] is reported as “Not Active”.
`CCOC(=O)[C@H](CCc1ccccc1)N[C@@H](C)C(=O)N1Cc2ccccc2C[C@H]1C(=O)O`: the IC50 result (in assay [1] (huvec); on Neutrophil elastase; in assay [2] (insect cells); in assay [3]; against Acetylcholinesterase (hek293); in assay [4]) was “Not Active” in each case. Besides, the IC50 entry against Histamine H2 receptor was “Not Active”. The Ki entry in assay [3] is “Not Active”.
On to `O=C(c1ccccc1Cl)N1CCC(Cc2ccccc2)CC1`, for which the IC50 result (in assay [1] (huvec); on Neutrophil elastase; in assay [2] (insect cells); in assay [3]; at Acetylcholinesterase (hek293); in assay [4]) was “Not Active” in each case. Moreover, the IC50 entry against Histamine H2 receptor is “Not Active”. Besides, the Ki result in assay [3] was “Not Active”.
With `CCOC(=O)[C@H](CCc1ccccc1)N[C@@H](C)C(=O)N1CCC[C@H]1C(=O)O`, the IC50 result (in assay [1] (huvec); against Neutrophil elastase; in assay [2] (insect cells); in assay [3]; on Acetylcholinesterase (hek293); in assay [4]) was “Not Active” each time. For the same molecule, the half-inhibitory concentration (IC50) entry at Histamine H2 receptor was “Not Active”. In assay [3], the Ki entry is given as “Not Active”.
On to `Clc1cc2c(cc1Cl)Oc1cc(Cl)c(Cl)cc1O2` [2,3,7,8-TETRACHLORODIBENZO-P-DIOXIN], for which the IC50 in assay [1] (read-out: IC50) was 0.00269 µM; on Neutrophil elastase, “Not Active”; in assay [2] (insect cells) it was “Not Active”; in assay [3], “Not Active”; on Acetylcholinesterase (hek293), “Not Active”; in assay [4], “Not Active”. For the same molecule, the IC50 entry against Histamine H2 receptor is on record as “Not Active”. Further, the Ki in assay [1] (read-out: Ki) is 0.000697 µM; in assay [3] it was “Not Active”.
In the case of `C=C1/C(=C\C=C2/CCC[C@]3(C)[C@@H]([C@H](C)CCCC(C)C)CC[C@@H]23)C[C@@H](O)C[C@@H]1O` [ALFACALCIDOL], the IC50 result (in assay [1] (huvec); on Neutrophil elastase; in assay [2] (insect cells); in assay [3]; at Acetylcholinesterase (hek293); in assay [4]) was “Not Active” each time. The IC50 result at Histamine H2 receptor is “Not Active”. Moreover, in assay [3], the Ki result was “Not Active”.
Regarding `CCCCCC[C@H]1C(=O)O[C@H](C)[C@H](NC(=O)c2cccc(NC=O)c2O)C(=O)O[C@@H](C)[C@@H]1OC(=O)CC(C)C` [ANTIMYCIN A], the IC50 result (in assay [1] (huvec); against Neutrophil elastase; in assay [2] (insect cells); in assay [3]; on Acetylcholinesterase (hek293); in assay [4]) was “Not Active” throughout. Moreover, the IC50 entry against Histamine H2 receptor is “Not Active”. In addition, the Ki result in assay [3] is “Not Active”.
Regarding `C[C@@H]1CC[C@H]2[C@@H](C)C(=O)O[C@@H]3O[C@@]4(C)CC[C@@H]1[C@]32OO4` [ARTEMISININ], the IC50 result (in assay [1] (huvec); against Neutrophil elastase; in assay [2] (insect cells); in assay [3]; against Acetylcholinesterase (hek293); in assay [4]) was “Not Active” each time. On Histamine H2 receptor, the IC50 result is “Not Active”. Also, the Ki result in assay [3] is listed as “Not Active”.
As to `CO[C@H]1[C@@H](O)[C@H](N)[C@@H](O[C@H]2O[C@H]([C@H](C)N)CC[C@H]2N)[C@H](O)[C@@H]1N(C)C(=O)CN` [ASTROMICIN], the IC50 result (in assay [1] (huvec); against Neutrophil elastase; in assay [2] (insect cells); in assay [3]; at Acetylcholinesterase (hek293); in assay [4]) was “Not Active” each time. Further, the IC50 result at Histamine H2 receptor is recorded as “Not Active”. In assay [3], the Ki result is on record as “Not Active”.
As to `[N-]=[N+]=CC(=O)OC[C@H](N)C(=O)O` [AZASERINE], the IC50 entry (in assay [1] (huvec); at Neutrophil elastase; in assay [2] (insect cells); in assay [3]; at Acetylcholinesterase (hek293); in assay [4]) was “Not Active” in each case. In addition, the IC50 entry against Histamine H2 receptor is “Not Active”. Moreover, the Ki entry in assay [3] is on record as “Not Active”.
Regarding `CC[C@H]1OC(=O)[C@H](C)[C@@H](O[C@H]2C[C@@](C)(OC)[C@@H](O)[C@H](C)O2)[C@H](C)[C@@H](O[C@@H]2O[C@H](C)C[C@H](N(C)C)[C@H]2O)[C@](C)(O)C[C@@H](C)CN(C)[C@H](C)[C@@H](O)[C@]1(C)O` [AZITHROMYCIN], the IC50 entry (in assay [1] (huvec); against Neutrophil elastase; in assay [2] (insect cells); in assay [3]; against Acetylcholinesterase (hek293); in assay [4]) was “Not Active” each time. Besides, at Histamine H2 receptor, the IC50 entry was “Not Active”. Also, in assay [3], the Ki result is “Not Active”.
Turning to `CC(C)(C)c1ccc(S(=O)(=O)/C=C/C#N)cc1` [BAY-11-7085], the IC50 result (in assay [1] (huvec); on Neutrophil elastase; in assay [2] (insect cells); in assay [3]; against Acetylcholinesterase (hek293); in assay [4]) was “Not Active” throughout. In addition, the IC50 result on Histamine H2 receptor is recorded as “Not Active”. Further, the Ki entry in assay [3] was “Not Active”.
For the molecule `CCc1oc2ccccc2c1C(=O)c1cc(Br)c(O)c(Br)c1` [BENZBROMARONE], the IC50 result (in assay [1] (huvec); on Neutrophil elastase; in assay [2] (insect cells); in assay [3]; against Acetylcholinesterase (hek293); in assay [4]) was “Not Active” throughout. In addition, the IC50 entry against Histamine H2 receptor is “Not Active”. The Ki entry in assay [3] is recorded as “Not Active”.
With `O=c1cc(-c2ccccc2)oc2ccc3ccccc3c12` [BETA-NAPHTHOFLAVONE], the IC50 entry (in assay [1] (huvec); at Neutrophil elastase; in assay [2] (insect cells); in assay [3]; on Acetylcholinesterase (hek293); in assay [4]) was “Not Active” each time. Also, the IC50 result against Histamine H2 receptor was “Not Active”. In addition, the Ki entry in assay [3] is “Not Active”.
For `CC(C)C[C@H]1C(=O)N2CCC[C@H]2[C@]2(O)O[C@](NC(=O)[C@@H]3C=C4c5cccc6[nH]c(Br)c(c56)C[C@H]4N(C)C3)(C(C)C)C(=O)N12` [BROMOCRIPTINE], the IC50 result (in assay [1] (huvec); against Neutrophil elastase; in assay [2] (insect cells); in assay [3]; at Acetylcholinesterase (hek293); in assay [4]) was “Not Active” throughout. Besides, the IC50 result against Histamine H2 receptor is on record as “Not Active”. Besides, the Ki entry in assay [3] was “Not Active”.
Regarding `CS(=O)(=O)OCCCCOS(C)(=O)=O` [BUSULFAN], the IC50 result (in assay [1] (huvec); against Neutrophil elastase; in assay [2] (insect cells); in assay [3]; on Acetylcholinesterase (hek293); in assay [4]) was “Not Active” each time. The IC50 entry against Histamine H2 receptor is “Not Active”. In addition, in assay [3], the Ki entry is “Not Active”.
With `O=C(/C=C/c1ccc(O)c(O)c1)OCCc1ccccc1` [CAFFEIC ACID PHENETHYL ESTER], the half-inhibitory concentration (IC50) entry in assay [1] (huvec) is “Not Active”; on Neutrophil elastase, “Not Active”; in assay [2] (read-out: IC50) it was 1.01 µM; in assay [3], “Not Active”; at Acetylcholinesterase (hek293), “Not Active”; in assay [4], “Not Active”. In addition, the IC50 entry at Histamine H2 receptor was “Not Active”. Besides, the Ki result in assay [3] was “Not Active”.
As for `COc1cc(CNC(=O)CCCC/C=C/C(C)C)ccc1O` [CAPSAICIN], the IC50 result (in assay [1] (huvec); on Neutrophil elastase; in assay [2] (insect cells); in assay [3]; on Acetylcholinesterase (hek293); in assay [4]) was “Not Active” each time. Besides, the IC50 result at Histamine H2 receptor is recorded as “Not Active”. Also, in assay [3], the inhibitory constant (Ki) entry is “Not Active”.
As to `NC(=O)N1c2ccccc2C=Cc2ccccc21` [CARBAMAZEPINE], the IC50 result (in assay [1] (huvec); on Neutrophil elastase; in assay [2] (insect cells); in assay [3]; at Acetylcholinesterase (hek293); in assay [4]) was “Not Active” in each case. Besides, the IC50 entry against Histamine H2 receptor is reported as “Not Active”. Also, the Ki result in assay [3] is listed as “Not Active”.
